# Assay results: patent US20180057505A1, “BICYCLIC HETEROARYL COMPOUNDS USEFUL AS INHIBITORS OF THE PAR-2 SIGNALING PATHWAY” (VERTEX PHARMACEUTICALS INCORPORATED, priority 2015, published 2018)
# pIC50: −log10 of the molar value.
# Columns and labels:
# Assay type in all cases: cell-based
# [1] = tested on: Thrombin-stimulated Ca2+ response in HT-29 cells; test: Ca FLIPR TETRA assay, ANTAGONIST mode, activator 1 U/mL Thrombin; conditions: for pIC50: HT-29 cells, activator 1 U/mL Thrombin
# Method: (§1) Protocol for Testing PAR2 Compounds in ANTAGONIST Mode Using the Ca FLIPR^TETRA Assay (384 Well).
# (§2) 23000 HT-29 cells (ATCC# HTB-38) were plated in 384-well black, transparent-flat bottom plates and incubated in 25 uL of 1% FBS/McCoy's media ON at 37° C. under an atmosphere of 5% CO2. The following day, 25 uL FLIPR calcium 5 Molecular Devices assay reagent (Cat: R-8186) was added. Plates were incubated at 37° C. and r. t. for 45 min and 15 min, respectively. Compounds dilutions were prepared in 100% DMSO using a Biomek FX and diluted 20-fold in HBSS and then 5.5 uL was added directly to the cells by the FLIPR^TETRA (10× dilution) using FLIPR Tetra Pipette tips, black, non-sterile, 384 Molecular Devices (Cat: 9000-0764).
# (§3) A first read was performed to determine whether the test compounds on their own can activate Ca^2+ responses. The cells were incubated with the compounds for 30 min at r. t. and then read in ANTAGONIST mode in the same plate by stimulating with 6.2 uL of a fixed concentration of the activator: final concentrations 8 μM SLIGKV, 1 U/mL Thrombin, 3.1 U/mL trypsin, or 0.6 μM UTP.
# PAR2 (HT-29 cells) [2] = biological target: T1, PAR2 (HT-29 cells) (Homo sapiens, UniProt P55085); test: Ca FLIPR TETRA assay, ANTAGONIST mode, activator 8 μM SLIGKV; conditions: HT-29 cells, activator 8 μM SLIGKV
# T1 construct: host or cells: HT-29
# T1 sequence (P55085 26-397): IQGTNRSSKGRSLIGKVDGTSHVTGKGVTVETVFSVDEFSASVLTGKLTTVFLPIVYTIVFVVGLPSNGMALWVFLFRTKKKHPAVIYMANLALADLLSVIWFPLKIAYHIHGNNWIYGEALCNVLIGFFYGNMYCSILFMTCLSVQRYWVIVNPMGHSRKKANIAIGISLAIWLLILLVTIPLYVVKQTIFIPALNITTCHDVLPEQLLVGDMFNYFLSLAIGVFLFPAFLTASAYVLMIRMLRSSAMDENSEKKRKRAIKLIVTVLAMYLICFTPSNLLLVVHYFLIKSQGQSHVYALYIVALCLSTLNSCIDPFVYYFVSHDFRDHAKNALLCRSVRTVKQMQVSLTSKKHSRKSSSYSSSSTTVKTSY
# Method: as §1, §2, §3
# PAR2 (HT-29 cells) [3] = biological target: T1, PAR2 (HT-29 cells); test: Ca FLIPR TETRA assay, ANTAGONIST mode, activator 3.1 U/mL trypsin; conditions: HT-29 cells, activator 3.1 U/mL trypsin
# Method: as §1, §2, §3
# [4] = tested on: UTP-stimulated Ca2+ response in HT-29 cells; test: Ca FLIPR TETRA assay, ANTAGONIST mode, activator 0.6 μM UTP; conditions: for pIC50 / inhibition at 50 µM: Homo sapiens; for pIC50: HT-29 cells, activator 0.6 μM UTP; for inhibition at 50 µM: HT-29
# Method: as §1, §2, §3
# [5] = maximal antagonist concentration per Method (A: 0.1, 1 or 2 μM; B: 50 μM)
# [6] = Method A: maximal concentration of antagonist 0.1, 1 or 2 μM
pIC50 [1],pIC50 (PAR2 (HT-29 cells) [2]; [5]),pIC50 (PAR2 (HT-29 cells) [3]; [5]),pIC50 ([1]; Homo sapiens),pIC50 (PAR2 (HT-29 cells) [2]; [6]),pIC50 (PAR2 (HT-29 cells) [3]; [6]),pIC50 [4],SMILES,"UTP, % @ 50 ([4]; @ 50 (μM))",inhibition at 50 µM ([4]; @ 50 (μM)),"Thrombin, % @ 50 ([1]; @ 50 (μM))"
< 4.30,7.48,7.00,–,–,–,–,"CC(C)c1cc(-c2ccc(F)cc2)nc2cc(C(=O)N3CCN(C(=O)C4CC4(F)F)CC3(C)C)oc12 (single isomer, unassigned) [Example I-76]",56% @ 50,–,–
–,–,–,< 5.70,8.92,8.77,< 5.70,"CC(CC(=O)N1CCN(C(=O)c2cc3nc(-c4ccc(Cl)c(F)c4)cc(C(C)(C)C)c3o2)C(C)(C)C1)C(=O)O (single isomer, unassigned) [Example I-513]",–,–,–
< 5.70,–,–,–,8.89,8.96,–,"CC(CC(=O)N1CCN(C(=O)c2cc3nc(-c4ccc(Cl)c(F)c4)cc(C(C)(C)C)c3o2)C(C)(C)C1)C(=O)O (single isomer, unassigned) [Example I-514]",–,–,–
–,7.17,7.19,4.72,–,–,4.70,CC(C)c1cc(-c2ccc(F)cc2)nc2cc(C(=O)N3CCN(C(=O)C(C)(C)O)CC3(C)C)oc12 [Example I-1],–,–,–
–,7.66,7.54,< 4.30,–,–,< 4.30,CC(C)(C)OC(=O)N1CCN(C(=O)c2cc3nc(-c4ccc(F)cc4)cc(Cl)c3o2)C(C)(C)C1 [Example I-2],–,–,–
–,6.15,6.09,4.59,–,–,4.74,Cc1cc(-c2ccc(F)cc2)nc2cc(C(=O)N3CCN(C(=O)C(C)(C)O)CC3(C)C)oc12 [Example I-3],–,–,–
–,6.68,6.72,5.08,–,–,4.92,CCc1cc(-c2ccc(F)cc2)nc2cc(C(=O)N3CCN(C(=O)C(C)(C)O)CC3(C)C)oc12 [Example I-4],–,–,–
–,6.92,6.80,4.96,–,–,5.06,CC(C)(O)C(=O)N1CCN(C(=O)c2cc3nc(-c4ccc(F)cc4)cc(C4CC4)c3o2)C(C)(C)C1 [Example I-5],–,–,–
–,8.49,8.38,< 4.30,–,–,4.44,CC(C)c1cc(-c2ccc(F)cc2)nc2cc(C(=O)N3CCN(C(=O)OC(C)(C)C)CC3(C)C)oc12 [Example I-6],–,–,–
–,7.64,7.70,5.51,–,–,5.57,CC(C)c1cc(-c2ccc(F)cc2)nc2cc(C(=O)N3CCNC(=O)C3(C)C)oc12 [Example I-7],–,–,–
–,7.54,7.55,5.44,–,–,4.70,CC(C)c1cc(-c2ccc(F)cc2)nc2cc(C(=O)N3CCN(C(=O)C4(O)CCC4)CC3(C)C)oc12 [Example I-8],–,–,–
–,7.05,7.08,5.02,–,–,5.35,CC(C)c1cc(-c2ccc(F)cc2)nc2cc(C(=O)N3CCN(C(=O)CC#N)CC3(C)C)oc12 [Example I-9],–,–,–
–,7.64,7.57,4.82,–,–,4.80,CC(C)c1cc(-c2ccc(F)cc2)nc2cc(C(=O)N3CCN(C(=O)C4CCCO4)CC3(C)C)oc12 (stereo not drawn) [Example I-10],–,–,–
–,8.62,8.46,5.85,–,–,–,CC(C)c1cc(-c2ccc(F)cc2)nc2cc(C(=O)N3CCN(C(=O)c4ccccc4)CC3(C)C)oc12 [Example I-11],–,59%,–
–,8.08,8.07,5.06,–,–,5.24,CC(C)c1cc(-c2ccc(F)cc2)nc2cc(C(=O)N3CCN(C(=O)C(O)C(C)C)CC3(C)C)oc12 (stereo not drawn) [Example I-12],–,–,–
–,8.52,8.35,6.00,–,–,5.92,CC(C)c1cc(-c2ccc(F)cc2)nc2cc(C(=O)N3CCN(C(=O)c4ccno4)CC3(C)C)oc12 [Example I-13],–,–,–
–,8.55,8.52,–,–,–,–,CC(C)c1cc(-c2ccc(F)cc2)nc2cc(C(=O)N3CCN(C(=O)C(C)(C)C)CC3(C)C)oc12 [Example I-14],–,59%,57% @ 50

pIC50 [1],pIC50 (PAR2 (HT-29 cells) [2]; [5]),pIC50 (PAR2 (HT-29 cells) [3]; [5]),pIC50 ([1]; Homo sapiens),pIC50 (PAR2 (HT-29 cells) [2]; [6]),pIC50 (PAR2 (HT-29 cells) [3]; [6]),pIC50 [4],SMILES,"UTP, % @ 50 ([4]; @ 50 (μM))",inhibition at 50 µM ([4]; @ 50 (μM)),"Thrombin, % @ 50 ([1]; @ 50 (μM))"
–,6.64,6.72,4.85,–,–,4.85,CC(C)c1cc(-c2ccc(F)cc2)nc2cc(C(=O)N3CCN(C(=O)[C@H](C)O)CC3(C)C)oc12 [Example I-15],–,–,–
–,8.14,8.17,5.16,–,–,–,CC(C)c1cc(-c2ccc(F)cc2)nc2cc(C(=O)N3CCN(C(=O)C(C)(C)F)CC3(C)C)oc12 [Example I-16],–,61%,–
–,7.23,7.17,4.85,–,–,4.82,COCC(=O)N1CCN(C(=O)c2cc3nc(-c4ccc(F)cc4)cc(C(C)C)c3o2)C(C)(C)C1 [Example I-17],–,–,–
–,8.85,8.96,5.10,–,–,4.77,CC(C)c1cc(-c2ccc(F)cc2)nc2cc(C(=O)N3CCN(C(=O)[C@H](O)CC(C)(C)C)CC3(C)C)oc12 [Example I-18],–,–,–
–,8.25,8.36,5.00,–,–,5.24,CC(C)c1cc(-c2ccc(F)cc2)nc2cc(C(=O)N3CCN(C(=O)C4(C)CC4)CC3(C)C)oc12 [Example I-19],–,–,–
–,7.96,8.00,5.15,–,–,5.82,CC#CC(=O)N1CCN(C(=O)c2cc3nc(-c4ccc(F)cc4)cc(C(C)C)c3o2)C(C)(C)C1 [Example I-20],–,–,–
–,8.85,8.59,< 4.30,–,–,–,CC(C)c1cc(-c2ccc(F)cc2)nc2cc(C(=O)N3CCN(C(=O)CC(C)(C)C)CC3(C)C)oc12 [Example I-21],–,59%,–
–,8.62,8.70,< 4.30,–,–,–,CC(C)c1cc(-c2ccc(F)cc2)nc2cc(C(=O)N3CCN(C(=O)C4CC4(C)C)CC3(C)C)oc12 (stereo not drawn) [Example I-22],–,64%,–
–,7.10,7.15,5.11,–,–,4.96,CC(C)c1cc(-c2ccc(F)cc2)nc2cc(C(=O)N3CCN(C(=O)C4(O)CCOCC4)CC3(C)C)oc12 [Example I-23],–,–,–
–,7.32,7.36,5.06,–,–,5.00,CC(=O)N1CCN(C(=O)c2cc3nc(-c4ccc(F)cc4)cc(C(C)C)c3o2)C(C)(C)C1 [Example I-24],–,–,–
–,7.85,7.74,5.37,–,–,5.57,CC1(c2cc(-c3ccc(F)cc3)nc3cc(C(=O)N4CCNC(=O)C4(C)C)oc23)CC1 [Example I-25],–,–,–
–,8.21,8.10,5.32,–,–,5.15,CC1(c2cc(-c3ccc(F)cc3)nc3cc(C(=O)N4CCN(C(=O)C5(O)CC5)CC4(C)C)oc23)CC1 [Example I-26],–,–,–
–,8.04,8.10,–,–,–,–,CC(C)(C)c1cc(-c2ccc(Cl)cc2)nc2cc(C(=O)N3CCNC(=O)C3(C)C)oc12 [Example I-157],–,–,–
–,8.32,8.30,–,–,–,–,CC(C)(C)c1cc(-c2ccc(Cl)c(F)c2)nc2cc(C(=O)N3CCNC(=O)C3(C)C)oc12 [Example I-176],–,–,–
–,8.49,8.21,–,–,–,–,CC(C)(C)c1cc(-c2ccc(Cl)c(F)c2)nc2cc(C(=O)N3CCN(c4nc(C(=O)O)co4)CC3(C)C)oc12 [Example I-290],–,–,–
–,–,–,–,7.92,8.02,–,CC(C)(C)c1cc(-c2ccc(Cl)cc2)nc2cc(C(=O)N3CCN(c4cnccn4)CC3(C)C)oc12 [Example I-368],–,–,–
